# Values joined by “and” are separate entries in the source; they are usually repeats but may differ in a detail not shown here. Equal values may be shown once. Read-outs that look alike come from different tables or passages of the source.
# How the values were obtained:
# S. Typhimurium (SL1344) = assay: Minimum inhibitory concentration determination in broth; format: cell-based; settings: for MIC50: Salmonella enterica, TYPHIMURIUM
# Method: (§1) A, B) Dose response curves monitoring S. Typhimurium (SL1344) or E. coli (K12) growth from an OD600 of 0.01, normalized to growth in 2% DMSO under the indicated condition. Mean and SEM of at least three biological replicates performed with technical triplicates; curve fit: sigmoidal, 4P L. C-E) Checkerboard assays of S. Typhimurium SL1344 growth from an OD600 of 0.01 in LB for 18 hours with novobiocin (up to 100 μg/mL) and (C) PMB (up to 48 μM), (D) JDI (up to 150 μM), or (E) D66 (up to 150 μM). Growth was normalized to growth in 2% DMSO, with the darkest blue representing 100% growth and white representing 0%.
# Minimum inhibitory concentration determination: Overnight LB-grown cultures were diluted in LB or MHB to an optical density (OD600) of 0.01 and distributed into polystyrene 96-well flat-bottom plates (Greiner, 655185). […] The final DMSO concentration was at or below 2%. Where indicated, PMB [0.5 μg/mL] was added prior to D66. Plates were grown at 37° C. with shaking and OD600 was monitored (BioTek Synergy H1 or BioTek Eon). MICs were defined as the concentration at which 95% of growth was inhibited (OD600).
# S. Typhimurium SL1344 = assay: Novobiocin potentiation (checkerboard) assay; format: cell-based; settings: LB, 18 hours, D66 up to 150 μM, novobiocin up to 100 μg/mL
# Method: as §1
# Novobiocin potentiation assays: Overnight LB-grown cultures were diluted in LB to an optical density at 600 nm (OD600) of 0.01 and distributed into polystyrene 96-well flat-bottom plates (Greiner, 655185). […] The final DMSO concentration was at or below 2%. Plates were grown at 37° C. with shaking for 18 hours and OD600 was monitored (BioTek Synergy H1).
# [1] = system: S. Typhimurium strain SL1344; format: in vivo
# Method: FIG. 5A-C. […] Mice were euthanized 48 hours after infection. […] Significance was determined by Mann-Whitney.
# Female C57Bl/6 7-8-week-old mice were IP inoculated with S. Typhimurium strain SL1344. Six mice per cohort were IP-treated with 100 μL of vehicle (50% DMSO), 50 mg/kg of chloramphenicol, or 50 mg/kg of D66 at 10 minutes and 24 hours post-infection. Mice were euthanized at 48 hours by CO2 asphyxiation, followed by cervical dislocation. Spleen and liver were collected, homogenized in 1 mL PBS and serially diluted for plating to enumerate CFU. The experiment was performed twice independently with 7×10^3 CFU, 3×10^4 CFU respectively, as determined by plating. A ROUT test for outliers and a Mann-Whitney test for significance were performed in GraphPad Prism.
# S. aureus FDA209 = assay: Growth inhibition in broth (MIC95); format: cell-based; settings: Staphylococcus aureus
# Method: FIG. 8A-B. […] inhibits the growth of Gram-positive bacteria in broth. A) Dose response curves monitoring staphylococcal and B. subtills growth in the presence of […] from an OD600 of 0.01, normalized to growth in 2% DMSO after 18 hours. Mean and SEM of at least three biological replicates performed with technical triplicates. B) Table of […] concentrations that inhibit growth. For comparison, S. Typhimurium is included.
# S. aureus (FDA209) = assay: Membrane voltage with DiSC3(5) in Gram-positive bacteria; format: cell-based; settings: mid-log S. aureus FDA209 in LB
# Method: A) D66 quenches the fluorescent dye DiSC3 (5) in a dose-dependent manner. Data were normalized to DMSO at time 0. Relative fluorescent units (RFU). Mean and SEM of three biological replicates performed with technical triplicates. B, C) Mid-log phase S. aureus (FDA209) in LB were treated at time 0 with DMSO, gramicidin [2 μg/mL], or D66 (1x MIC95=130 μM). B) Fold change in RFU. Data are normalized to DMSO at time 0. C) Data normalized to account for the quenching effect of D66 on DiSC3 (5) observed in A. Mean and SEM of three biological replicates performed with technical triplicates. D) Bacillus subtilis expressing mNeonGreen-FtsZ at stationary phase in LB were placed on agar pads containing D66 at the indicated concentration (1x MIC95=89 μM). Confocal microscope images were taken after 15 minutes to ascertain whether D66 disrupted the septal localization of FtsZ.
# [2] = system: staphylococcal persister cells; assay: Staphylococcal persister cell viability in broth; format: cell-based; settings: overnight cultures in broth, D66 at MIC95
# Method: A-D) Overnight cultures of the indicated strains were treated at time 0 with DMSO, ciprofloxacin [4 μg/mL], vancomycin [10 μg/mL], or the corresponding MIC95 concentration of D66 (1x MIC95=130 μM, 49 μg/mL). Cultures were plated for enumeration of CFU at time points indicated. Mean and SEM of three biological replicates. E) RAW 264.7 macrophage-like cells and HeLa cells were infected with S. aureus USA300, at MOIs of 0.5 and 2.5, respectively. Cells were treated two hours after infection with DMSO (gray circle on Y axis), or dilutions of D66 from 40 μM. After 8 hours of infection, cells were lysed and plated for enumeration of CFU. Mean and SEM of biological duplicates performed with technical triplicates each with six dilutions of D66. The IC50 value that was calculatable is indicated.
# [3] = system: one-day-old staphylococcal biofilms; assay: One-day-old staphylococcal biofilms; format: cell-based; settings: biofilms established 24 hours in TSB, treated 18 hours
# Method: For the indicated strain, biofilms established in TSB for 24 hours were treated for 18 hours with DMSO, rifampin (1x MIC95=0.05 μg/mL), vancomycin (1x MIC95=1 μg/mL), or D66. The remaining biofilm (A-D) matrix was quantified with crystal violet or E-F) volume was quantified after Syto9 and PI staining as in FIG. 5. G, H) Syto9 and PI-stained Z-stacked images were converted to volumes. Volume data were compiled and reconstructed in Nikon Elements Advanced Research software using a color-coded volume display where blue is the bottom, lowest Z-stack and magenta is the highest point for each sample. Scale bar is in um.
# Asterisks indicate P≤0.05 as determined by one-way ANOVA compared to DMSO. A-D are means and SEMs from three biological replicates performed in triplicate. E-F are means and SDs of one of two replicates derived from a minimum of four fields of view. G-H are representative images from this same replicate as in E-F.
structure (smiles),measurement,setting,value
O=C(Nc1cc(Cl)cc(Cl)c1)N1CCCN(Cc2ccccc2)CC1 [D66],growth inhibition in the presence of polymyxin B nonapeptide (PMBN),"S. Typhimurium (SL1344); PMBN [20 μg/mL], MHB",did not enable D66 to inhibit growth
same,cMIC95 in LB,"S. Typhimurium (SL1344); S. Typhimurium (SL1344) w/PMB (0.5 ug/mL), LB",54 µM
same,cMIC95 in MHB,"S. Typhimurium (SL1344); S. Typhimurium (SL1344) w/PMB (0.5 ug/mL), MHB",46 µM
same,cMIC95 in LB,"S. Typhimurium (SL1344); S. Typhimurium (SL1344), LB",>150 µM
same,cMIC95 in MHB,"S. Typhimurium (SL1344); S. Typhimurium (SL1344), MHB",>150 µM
same,MIC50,"S. Typhimurium (SL1344); S. Typhimurium (SL1344) w/PMB (0.5 ug/mL), LB, read-out: MIC50 in LB",45 µM and 17 µg/mL
same,MIC50,"S. Typhimurium (SL1344); S. Typhimurium (SL1344) w/PMB (0.5 ug/mL), MHB, read-out: MIC50 in MHB",40 ± 1 µM
same,MIC50,"S. Typhimurium (SL1344); S. Typhimurium (SL1344), LB, read-out: MIC50 in LB",> 150 µM and > 57 µg/mL
same,MIC50,"S. Typhimurium (SL1344); S. Typhimurium (SL1344), MHB, read-out: MIC50 in MHB",> 150 µM
same,potentiation of growth inhibition with novobiocin,S. Typhimurium SL1344,did not potentiate novobiocin
same,S. Typhimurium colonization of spleen and liver (tissue CFU),"[1]; C57Bl/6 mice, 50 mg/kg IP at 10 minutes and 24 hours post-inoculation, 48 hours, P<0.05 Mann-Whitney",reduced S. Typhimurium colonization in both tissues
same,survival and condition of infected treated mice,"[1]; female, C57Bl/6, mouse, in vivo, ip, 50 mg/kg, 48 h",survived in good condition out to 48 hours
same,MIC,S. aureus FDA209,130 µM
same,voltage across the bacterial cytoplasmic membrane,S. aureus (FDA209),rapidly disrupts voltage across the bacterial cytoplasmic membrane
same,number of viable staphylococcal persister cells,[2],did not reduce the number of viable staphylococcal persister cells in broth
same,number of live cells in one-day-old biofilms,[3],decreases the number of live cells

# — patent US20250302846A1, “ANTIBIOTIC COMPOSITION AND METHODS OF USE THEREOF” (THE REGENTS OF THE UNIVERSITY OF COLORADO A BODY CORPORATE, priority 2022, published 2025)
